According to ChEMBL document CHEMBL4049403, “Oligo-aspartic acid conjugates with benzo[c][2,6]naphthyridine-8-carboxylic acid scaffold as picomolar inhibitors of CK2” (Bioorg Med Chem, 2017):
Where a SMILES comes first, the peptide text is derived from it. The star is where a group is joined. X1 = O=C(O)c1ccc2c(c1)nc(OCCCCCCCCC(=O)*)c1ccncc12

Assays:
[1] = biological target: Casein kinase II subunit alpha (Homo sapiens, UniProt P68400); test: Inhibition of ARC-1504 binding to CK2alpha (unknown origin) (1 to 335 residues) measured after 15 mins by fluorescence anisotropic method
[2] = biological target: Dual specificity mitogen-activated protein kinase kinase 2 (Homo sapiens) (UniProt P36507); test: Inhibition of human MKK2 assessed as residual activity at 1 uM in presence of [33P]ATP by filter binding assay relative to control
[3] = biological target: Homeodomain-interacting protein kinase 2 (Homo sapiens) (UniProt Q9H2X6); test: Inhibition of human HIPK2 assessed as residual activity at 1 uM in presence of 33P-ATP by filter-binding assay relative to control
[4] = biological target: Dual specificity tyrosine-phosphorylation-regulated kinase 1A (Homo sapiens) (UniProt Q13627); test: Inhibition of human DYRK1A assessed as residual activity at 1 uM in presence of 33P-ATP by filter-binding assay relative to control
[5] = biological target: Inhibitor of nuclear factor kappa-B kinase subunit epsilon (Homo sapiens) (UniProt Q14164); test: Inhibition of human IKKe assessed as residual activity at 1 uM in presence of 33P-ATP by filter-binding assay relative to control
[6] = biological target: Dual specificity protein kinase CLK2 (Homo sapiens) (UniProt P49760); test: Inhibition of human CLK2 assessed as residual activity at 1 uM in presence of 33P-ATP by filter-binding assay relative to control
[7] = biological target: Dual specificity protein kinase TTK (Homo sapiens) (UniProt P33981); test: Inhibition of human TTK assessed as residual activity at 1 uM in presence of 33P-ATP by filter-binding assay relative to control
[8] = biological target: Serine/threonine-protein kinase 26 (Homo sapiens) (UniProt Q9P289); test: Inhibition of human MST4 assessed as residual activity at 1 uM in presence of [33P]ATP by filter binding assay relative to control
[9] = biological target: Proto-oncogene tyrosine-protein kinase Src (Homo sapiens) (UniProt P12931); test: Inhibition of human Src assessed as residual activity at 1 uM in presence of [33P]ATP by filter binding assay relative to control
[10] = biological target: Serine/threonine-protein kinase Nek2 (Homo sapiens) (UniProt P51955); test: Inhibition of human NEK2a assessed as residual activity at 1 uM in presence of [33P]ATP by filter binding assay relative to control
[11] = biological target: Serine/threonine-protein kinase pim-2 (Homo sapiens) (UniProt Q9P1W9); test: Inhibition of human PIM2 assessed as residual activity at 1 uM in presence of [33P]ATP by filter binding assay relative to control
[12] = biological target: Mitogen-activated protein kinase kinase kinase 7 (Homo sapiens) (UniProt O43318); test: Inhibition of human TAK1 assessed as residual activity at 1 uM in presence of [33P]ATP by filter binding assay relative to control
[13] = biological target: Inhibitor of nuclear factor kappa-B kinase subunit beta (Homo sapiens) (UniProt O14920); test: Inhibition of human IKKb assessed as residual activity at 1 uM in presence of [33P]ATP by filter binding assay relative to control
[14] = biological target: Testis-specific serine/threonine-protein kinase 1 (Homo sapiens) (UniProt Q9BXA7); test: Inhibition of human TSSK1 assessed as residual activity at 1 uM in presence of [33P]ATP by filter binding assay relative to control
[15] = biological target: Receptor tyrosine-protein kinase erbB-4 (Homo sapiens) (UniProt Q15303); test: Inhibition of human HER4 assessed as residual activity at 1 uM in presence of [33P]ATP by filter binding assay relative to control
[16] = biological target: Mitogen-activated protein kinase 1 (Homo sapiens) (UniProt P28482); test: Inhibition of human ERK2 assessed as residual activity at 1 uM in presence of [33P]ATP by filter binding assay relative to control
[17] = biological target: Tyrosine-protein kinase Yes (Homo sapiens) (UniProt P07947); test: Inhibition of human YES1 assessed as residual activity at 1 uM in presence of [33P]ATP by filter binding assay relative to control
[18] = biological target: MAP kinase-activated protein kinase 5 (Homo sapiens) (UniProt Q8IW41); test: Inhibition of human PRAK assessed as residual activity at 1 uM in presence of [33P]ATP by filter binding assay relative to control
[19] = biological target: Protein kinase C alpha type (Homo sapiens) (UniProt P17252); test: Inhibition of human PKCa assessed as residual activity at 1 uM in presence of [33P]ATP by filter binding assay relative to control
[20] = biological target: Mitogen-activated protein kinase 10 (Homo sapiens) (UniProt P53779); test: Inhibition of human JNK3 assessed as residual activity at 1 uM in presence of [33P]ATP by filter binding assay relative to control
[21] = biological target: Serine/threonine-protein kinase PAK 5 (Homo sapiens) (UniProt Q9P286); test: Inhibition of human PAK5 assessed as residual activity at 1 uM in presence of [33P]ATP by filter binding assay relative to control
[22] = biological target: Aurora kinase A (Homo sapiens) (UniProt O14965); test: Inhibition of human Aurora A assessed as residual activity at 1 uM in presence of [33P]ATP by filter binding assay relative to control
[23] = biological target: Myosin light chain kinase, smooth muscle (Homo sapiens) (UniProt Q15746); test: Inhibition of human SmMLCK assessed as residual activity at 1 uM in presence of [33P]ATP by filter binding assay relative to control
[24] = biological target: Eukaryotic elongation factor 2 kinase (Homo sapiens) (UniProt O00418); test: Inhibition of human EF2K assessed as residual activity at 1 uM in presence of [33P]ATP by filter binding assay relative to control
[25] = biological target: Tyrosine-protein kinase ABL1 (Homo sapiens) (UniProt P00519); test: Inhibition of human ABL assessed as residual activity at 1 uM in presence of [33P]ATP by filter binding assay relative to control
[26] = biological target: Mitogen-activated protein kinase 12 (Homo sapiens) (UniProt P53778); test: Inhibition of human P38g MAPK assessed as residual activity at 1 uM in presence of [33P]ATP by filter binding assay relative to control
[27] = biological target: Mitogen-activated protein kinase 11 (Homo sapiens) (UniProt Q15759); test: Inhibition of human P38b MAPK assessed as residual activity at 1 uM in presence of [33P]ATP by filter binding assay relative to control
[28] = biological target: CDK9/cyclin T1 (Homo sapiens) (UniProt O60563+P50750); test: Inhibition of human CDK9-CyclinT1 assessed as residual activity at 1 uM in presence of [33P]ATP by filter binding assay relative to control; type: protein-complex assay
[29] = biological target: Serine/threonine-protein kinase PAK 6 (Homo sapiens) (UniProt Q9NQU5); test: Inhibition of human PAK6 assessed as residual activity at 1 uM in presence of [33P]ATP by filter binding assay relative to control

Sequence of Casein kinase II subunit alpha (P68400 whole entry, the tested form may be a part): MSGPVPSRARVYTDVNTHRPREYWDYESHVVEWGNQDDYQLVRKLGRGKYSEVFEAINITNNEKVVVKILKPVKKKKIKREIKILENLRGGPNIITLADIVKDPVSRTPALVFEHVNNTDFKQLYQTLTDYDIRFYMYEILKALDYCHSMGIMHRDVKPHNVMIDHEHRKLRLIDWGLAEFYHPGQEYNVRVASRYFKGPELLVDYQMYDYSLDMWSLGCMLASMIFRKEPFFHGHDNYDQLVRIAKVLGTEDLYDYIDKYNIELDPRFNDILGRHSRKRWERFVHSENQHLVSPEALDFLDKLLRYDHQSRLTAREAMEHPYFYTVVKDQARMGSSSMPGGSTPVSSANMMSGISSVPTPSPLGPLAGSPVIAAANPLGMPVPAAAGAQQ
Sequence of Dual specificity protein kinase CLK2 (Homo sapiens) (P49760 whole entry, looked up): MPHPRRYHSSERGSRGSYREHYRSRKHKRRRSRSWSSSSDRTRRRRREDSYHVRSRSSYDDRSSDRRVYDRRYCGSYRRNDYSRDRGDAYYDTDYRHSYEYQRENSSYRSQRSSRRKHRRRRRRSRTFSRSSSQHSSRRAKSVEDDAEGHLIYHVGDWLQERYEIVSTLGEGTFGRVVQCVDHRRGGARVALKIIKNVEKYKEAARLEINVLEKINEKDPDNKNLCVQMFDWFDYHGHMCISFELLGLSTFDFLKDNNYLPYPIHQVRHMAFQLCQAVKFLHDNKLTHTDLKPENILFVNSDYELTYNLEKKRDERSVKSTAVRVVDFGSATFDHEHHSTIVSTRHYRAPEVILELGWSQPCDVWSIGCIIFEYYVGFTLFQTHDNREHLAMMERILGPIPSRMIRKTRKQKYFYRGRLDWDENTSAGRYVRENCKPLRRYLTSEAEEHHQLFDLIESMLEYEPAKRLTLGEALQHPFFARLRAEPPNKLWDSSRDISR
Sequence of Homeodomain-interacting protein kinase 2 (Homo sapiens) (Q9H2X6 whole entry, looked up): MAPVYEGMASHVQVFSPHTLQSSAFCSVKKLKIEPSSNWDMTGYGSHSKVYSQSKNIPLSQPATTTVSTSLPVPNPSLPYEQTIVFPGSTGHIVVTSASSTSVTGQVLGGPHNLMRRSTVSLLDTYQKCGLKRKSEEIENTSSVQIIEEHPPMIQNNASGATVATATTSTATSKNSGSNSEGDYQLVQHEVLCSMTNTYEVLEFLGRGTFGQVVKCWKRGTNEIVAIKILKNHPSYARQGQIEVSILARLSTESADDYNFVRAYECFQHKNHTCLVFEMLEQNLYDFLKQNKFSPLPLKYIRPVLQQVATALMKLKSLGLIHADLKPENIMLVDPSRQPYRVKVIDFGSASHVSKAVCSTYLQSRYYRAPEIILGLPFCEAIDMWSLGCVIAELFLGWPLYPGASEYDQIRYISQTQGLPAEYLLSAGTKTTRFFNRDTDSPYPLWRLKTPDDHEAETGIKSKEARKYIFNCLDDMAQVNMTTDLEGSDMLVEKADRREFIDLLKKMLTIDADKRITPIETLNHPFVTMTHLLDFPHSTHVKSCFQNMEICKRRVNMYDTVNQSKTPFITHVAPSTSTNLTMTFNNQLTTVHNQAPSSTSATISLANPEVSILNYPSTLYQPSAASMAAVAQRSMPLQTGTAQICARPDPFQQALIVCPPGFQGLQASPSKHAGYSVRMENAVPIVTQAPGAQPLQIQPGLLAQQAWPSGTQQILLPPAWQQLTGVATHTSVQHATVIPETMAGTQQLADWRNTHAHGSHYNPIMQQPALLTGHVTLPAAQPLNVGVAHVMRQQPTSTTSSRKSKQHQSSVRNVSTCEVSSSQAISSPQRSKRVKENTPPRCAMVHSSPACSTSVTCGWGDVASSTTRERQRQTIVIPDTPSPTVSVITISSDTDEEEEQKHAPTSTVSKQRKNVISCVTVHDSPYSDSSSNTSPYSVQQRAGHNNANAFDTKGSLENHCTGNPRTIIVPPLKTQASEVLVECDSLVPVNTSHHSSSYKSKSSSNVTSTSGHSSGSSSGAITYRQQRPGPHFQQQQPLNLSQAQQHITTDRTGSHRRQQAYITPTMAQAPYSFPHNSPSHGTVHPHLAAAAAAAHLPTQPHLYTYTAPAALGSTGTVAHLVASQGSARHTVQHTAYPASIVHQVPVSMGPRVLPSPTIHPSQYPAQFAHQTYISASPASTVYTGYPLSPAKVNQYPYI
Sequence of Receptor tyrosine-protein kinase erbB-4 (Homo sapiens) (Q15303 whole entry): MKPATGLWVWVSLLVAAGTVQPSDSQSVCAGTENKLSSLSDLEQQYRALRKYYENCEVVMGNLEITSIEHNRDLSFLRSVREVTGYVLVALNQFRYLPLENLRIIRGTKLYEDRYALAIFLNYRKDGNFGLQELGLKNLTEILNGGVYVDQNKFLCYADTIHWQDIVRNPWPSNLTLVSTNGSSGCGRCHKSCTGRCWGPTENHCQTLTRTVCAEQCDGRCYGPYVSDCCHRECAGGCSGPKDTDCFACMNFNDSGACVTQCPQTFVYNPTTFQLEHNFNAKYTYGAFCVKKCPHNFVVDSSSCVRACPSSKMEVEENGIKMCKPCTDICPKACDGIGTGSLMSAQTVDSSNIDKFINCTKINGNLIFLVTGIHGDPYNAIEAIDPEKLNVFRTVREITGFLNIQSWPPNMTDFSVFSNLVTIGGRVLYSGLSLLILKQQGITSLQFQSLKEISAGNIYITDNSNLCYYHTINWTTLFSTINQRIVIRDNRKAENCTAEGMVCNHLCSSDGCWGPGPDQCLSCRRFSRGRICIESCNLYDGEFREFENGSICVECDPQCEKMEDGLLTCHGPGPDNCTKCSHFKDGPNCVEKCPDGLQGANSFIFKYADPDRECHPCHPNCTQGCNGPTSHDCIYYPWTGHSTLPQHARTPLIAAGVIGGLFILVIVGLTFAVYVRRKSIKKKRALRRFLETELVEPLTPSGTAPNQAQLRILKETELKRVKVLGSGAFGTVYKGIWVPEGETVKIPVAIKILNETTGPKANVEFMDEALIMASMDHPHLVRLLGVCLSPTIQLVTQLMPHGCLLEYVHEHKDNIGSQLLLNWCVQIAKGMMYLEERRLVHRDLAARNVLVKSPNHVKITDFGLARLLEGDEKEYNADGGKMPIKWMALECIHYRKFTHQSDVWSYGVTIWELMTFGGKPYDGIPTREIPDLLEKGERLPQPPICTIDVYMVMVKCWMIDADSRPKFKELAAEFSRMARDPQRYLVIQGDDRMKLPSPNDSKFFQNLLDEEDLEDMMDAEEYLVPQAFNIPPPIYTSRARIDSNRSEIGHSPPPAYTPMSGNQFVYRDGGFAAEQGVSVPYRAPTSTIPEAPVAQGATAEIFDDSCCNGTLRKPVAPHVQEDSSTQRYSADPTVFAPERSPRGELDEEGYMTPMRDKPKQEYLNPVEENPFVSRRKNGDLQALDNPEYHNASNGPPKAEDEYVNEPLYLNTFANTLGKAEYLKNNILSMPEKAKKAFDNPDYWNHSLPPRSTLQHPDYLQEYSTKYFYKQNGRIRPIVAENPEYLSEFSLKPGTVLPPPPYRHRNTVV
Sequence of Serine/threonine-protein kinase Nek2 (Homo sapiens) (P51955 whole entry): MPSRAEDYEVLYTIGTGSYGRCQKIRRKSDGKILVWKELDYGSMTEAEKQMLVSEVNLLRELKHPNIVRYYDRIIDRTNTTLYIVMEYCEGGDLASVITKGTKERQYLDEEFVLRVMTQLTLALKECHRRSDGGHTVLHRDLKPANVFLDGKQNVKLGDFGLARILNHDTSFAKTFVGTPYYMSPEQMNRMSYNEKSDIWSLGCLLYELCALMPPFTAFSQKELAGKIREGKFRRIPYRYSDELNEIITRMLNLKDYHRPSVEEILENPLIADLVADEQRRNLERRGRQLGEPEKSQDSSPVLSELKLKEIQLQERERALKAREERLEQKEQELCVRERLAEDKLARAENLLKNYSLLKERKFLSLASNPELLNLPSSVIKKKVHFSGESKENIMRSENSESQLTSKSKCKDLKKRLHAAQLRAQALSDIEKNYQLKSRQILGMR
Sequence of Serine/threonine-protein kinase PAK 5 (Homo sapiens) (Q9P286 whole entry, looked up): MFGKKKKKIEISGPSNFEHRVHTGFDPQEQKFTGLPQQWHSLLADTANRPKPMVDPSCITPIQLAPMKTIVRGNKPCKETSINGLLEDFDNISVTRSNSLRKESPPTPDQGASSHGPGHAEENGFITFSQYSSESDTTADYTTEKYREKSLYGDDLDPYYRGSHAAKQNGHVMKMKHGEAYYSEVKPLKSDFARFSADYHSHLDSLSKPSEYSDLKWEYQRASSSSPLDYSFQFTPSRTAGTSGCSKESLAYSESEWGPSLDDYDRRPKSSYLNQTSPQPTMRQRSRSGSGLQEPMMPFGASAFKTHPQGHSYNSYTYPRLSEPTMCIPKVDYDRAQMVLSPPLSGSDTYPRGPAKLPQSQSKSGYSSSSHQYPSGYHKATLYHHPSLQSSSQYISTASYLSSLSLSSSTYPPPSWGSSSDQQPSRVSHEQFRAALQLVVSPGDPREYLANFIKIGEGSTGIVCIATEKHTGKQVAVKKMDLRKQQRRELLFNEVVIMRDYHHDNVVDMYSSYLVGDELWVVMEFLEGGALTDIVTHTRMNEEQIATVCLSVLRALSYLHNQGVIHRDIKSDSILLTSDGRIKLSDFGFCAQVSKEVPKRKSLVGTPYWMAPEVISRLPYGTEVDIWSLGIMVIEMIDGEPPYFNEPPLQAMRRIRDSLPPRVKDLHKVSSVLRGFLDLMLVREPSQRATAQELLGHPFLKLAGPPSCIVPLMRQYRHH
Sequence of Mitogen-activated protein kinase 11 (Homo sapiens) (Q15759 whole entry): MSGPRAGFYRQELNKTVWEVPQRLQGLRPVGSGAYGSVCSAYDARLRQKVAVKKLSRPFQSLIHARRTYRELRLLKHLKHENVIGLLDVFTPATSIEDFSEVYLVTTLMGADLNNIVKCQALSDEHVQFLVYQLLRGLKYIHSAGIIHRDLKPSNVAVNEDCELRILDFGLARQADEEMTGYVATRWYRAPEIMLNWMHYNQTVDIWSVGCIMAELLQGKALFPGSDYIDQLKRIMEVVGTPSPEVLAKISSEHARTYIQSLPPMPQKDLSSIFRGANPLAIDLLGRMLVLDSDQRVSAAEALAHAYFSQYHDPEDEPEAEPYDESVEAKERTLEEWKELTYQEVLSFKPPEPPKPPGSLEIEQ

NCCCC[C@H](NC(=O)[C@H](CC(=O)O)NC(=O)[C@H](CC(=O)O)NC(=O)[C@H](CC(=O)O)NC(=O)[C@H](CC(=O)O)NC(=O)[C@H](CC(=O)O)NC(=O)[C@H](CC(=O)O)NC(=O)CCCCCCCCOc1nc2cc(C(=O)O)ccc2c2cnccc12)C(=O)O (X1-DDDDDDK-OH)
Kd ([1]; read-out: Kd): 0.037 nM
Kd ([1]; read-out: pKd (converted)): 0.0316 nM
Activity [2]: 88%
Activity [3]: 5%
Activity [4]: 9%
Activity [5]: 13%
Activity [6]: 19%
Activity [7]: 48%
Activity [8]: 67%
Activity [9]: 67%
Activity [10]: 76%
Activity [11]: 80%
Activity [12]: 80%
Activity [13]: 81%
Activity [14]: 84%
Activity [15]: 90%
Activity [16]: 90%
Activity [17]: 91%
Activity [18]: 92%
Activity [19]: 93%
Activity [20]: 94%
Activity [21]: 97%
Activity [22]: 97%
Activity [23]: 98%
Activity [24]: 100%
Activity [25]: 100%
Activity [26]: 107%
Activity [27]: 107%
Activity [28]: 108%
Activity [29]: 110%
